Measured values reported in patent publication US20070003672A1, “Tri-part calcium fortified compositions and methods of making the same” (priority 2005, published 2007).
“And” between values parts separate entries of the source, which are not always exact repeats. Equal entries are not always repeated.

Assay: Physical/chemical attributes (calcium, pH, titratable acidity, Brix, Brix/Acid ratio) of calcium fortified orange juice
Assay type: physicochemical
Set-up: unit not given here
Details: orange juice fortified at 450 mg/100 mL calcium load
Text: The flavor of orange juice, for example, can be characterized by a unique balance of sweetness resulting from the sugar content and tartness resulting from the acid content. A challenge of fortifying orange juice with nutritionally significant amounts of calcium is maintaining the sweet to tart balance. This balance can be expressed analytically as the Brix to acid ratio, as described above. The Brix component of the ratio is the measure of soluble solids in the beverage often determined by a refractometer. The acid component can be determined by titration with a base such as sodium hydroxide. The Brix to acid ratio is an analytical representation or measure of the sweet to tart taste balance.
A variety of calcium salts, i.e., the calcium components, were evaluated to determine their effects on the Brix-acid ratio. In this evaluation, orange juices fortified with different calcium salts were prepared at 450 mg/100 mL of calcium load. […]
Orange juices fortified with various combinations of calcium salts, i.e. calcium components, were evaluated based on physical/chemical attributes compared to unfortified orange juice.

Question: Which “Calcium - Juice (48 Hours)” value does the source give for `O.O.O=C([O-])[C@H](O)[C@@H](O)C(=O)[O-].[Ca+2]` [calcium L-tartrate dihydrate] here?
Answer: The value was 140.

Question: With `O=P([O-])([O-])[O-].O=P([O-])([O-])[O-].[Ca+2].[Ca+2].[Ca+2]` [tricalcium phosphate] as the compound, how does the “Calcium - Juice (48 Hours)” value read?
Answer: The value was 182.

Question: For calcium gluconate monohydrate, which “Calcium - Juice (48 Hours)” value is on record?
Answer: Its value is 198.

Question: For `O.O.O.O=C([O-])/C=C/C(=O)[O-].[Ca+2]` [calcium fumarate trihydrate], which “Calcium - Juice (48 Hours)” value is on record?
Answer: The value was 202.

Question: Which “Calcium - Juice (48 Hours)” value does the source give for `O=C([O-])CC(O)C(=O)[O-].[Ca+2]` (stereo not shown) [calcium malate] here?
Answer: Its value is 213.

Question: For `O.O.[Ca+2].[Cl-].[Cl-]` [calcium chloride dihydrate], which “Calcium - Juice (48 Hours)” value is on record?
Answer: Its value is 206.

Question: For `O=C([O-])CC(O)(CC(=O)[O-])C(=O)[O-].O=C([O-])CC(O)(CC(=O)[O-])C(=O)[O-].[Ca+2].[Ca+2].[Ca+2]` [tri-calcium citrate], which “Calcium - Juice (48 Hours)” value is on record?
Answer: The value was 177.

Question: With `O.O=P([O-])(O)O.O=P([O-])(O)O.[Ca+2]` [monocalcium phosphate monohydrate] as the compound, how does the “Calcium - Juice (48 Hours)” value read?
Answer: The value was 207.

Question: Which “Calcium - Juice (48 Hours)” value does the source give for `N[C@@H](CCC(=O)[O-])C(=O)[O-].O.O.O.O.[Ca+2]` [calcium L-glutamate tetrahydrate] here?
Answer: The value was 207.

Question: For `CC(O)C(=O)[O-].CC(O)C(=O)[O-].O.O.O.O.O.[Ca+2]` (stereo not shown) [calcium lactate pentahydrate], which “Calcium - Juice (48 Hours)” value is on record?
Answer: The value was 204.

Question: For `O.O=C([O-])CCC(=O)[O-].[Ca+2]` [calcium succinate monohydrate], which “Calcium - Juice (48 Hours)” value is on record?
Answer: The value was 206.

Question: With `O=C([O-])[O-].[Ca+2]` [calcium carbonate] as the compound, how does the “Calcium - Juice (48 Hours)” value read?
Answer: Its value is 200.

Question: Which “Calcium - Juice (48 Hours)” value does the source give for `O.O=P([O-])([O-])OCC(O)CO.[Ca+2]` (stereo not shown) [calcium glycerophosphate monohydrate] here?
Answer: Its value is 187.

Question: With `O=P([O-])([O-])[O-].O=P([O-])([O-])[O-].[Ca+2].[Ca+2].[Ca+2]` [tricalcium phosphate (fine), tricalcium phosphate] as the compound, how does the “Calcium - Juice (48 Hours)” value read?
Answer: The value was 197.

Question: For `O.O.O=P([O-])([O-])O.[Ca+2]` [dicalcium phosphate dihydrate], which “Calcium - Juice (48 Hours)” value is on record?
Answer: The value was 181.

Question: For calcium ascorbate dihydrate, which “Calcium - Juice (48 Hours)” value is on record?
Answer: Its value is 195.

Question: With `O=P([O-])([O-])O.[Ca+2]` [dicalcium phosphate anhydrous] as the compound, how does the “Calcium - Juice (48 Hours)” value read?
Answer: The value was 203.

Question: Which “Calcium - Juice (48 Hours)” value does the source give for `O=C[O-].O=C[O-].[Ca+2]` [calcium formate] here?
Answer: Its value is 206.

Same assay, conditions: orange juice fortified at 450 mg/100 mL calcium load, citrate

Question: For `CC(O)C(=O)O.O=C(O)[C@H](O)[C@@H](O)[C@H](O)[C@H](O)CO.O=C([O-])CC(O)(CC(=O)[O-])C(=O)O.[Ca+2]` [calcium lactate gluconate citrate], which “Calcium - Juice (48 Hours)” value is on record?
Answer: The value was 200 and 202.
